How the values were obtained:
Assay in all cases: relative viability (nuclei count vs DMSO), 5 days (fraction); higher = more cells survive
Erlotinib + Linsitinib = compound: C#Cc1cccc(Nc2ncnc3cc(OCCOC)c(OCCOC)cc23)c1 [Erlotinib] + C[C@]1(O)C[C@@H](c2nc(-c3ccc4ccc(-c5ccccc5)nc4c3)c3c(N)nccn32)C1 [Linsitinib] (partner 1 µM)
Outline: (§1)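 Five library-drug doses in √10 steps were combined with a fixed anchor-drug dose, or a single drug was given alone, by pin tool to lung cancer cell lines in 1536-well plates the day after seeding. Nuclei were stained and counted after 5 days. Relative viability is the nuclei count in treated wells over that in vehicle wells, taken as the median of duplicate plates.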

AT9283 + Dasatinib = compound: O=C(Nc1c[nH]nc1-c1nc2ccc(CN3CCOCC3)cc2[nH]1)NC1CC1 [AT9283] + Cc1nc(Nc2ncc(C(=O)Nc3c(C)cccc3Cl)s2)cc(N2CCN(CCO)CC2)n1 [Dasatinib] (partner 0.075 µM)
Outline: as §1

AT9283 + Lapatinib = compound: O=C(Nc1c[nH]nc1-c1nc2ccc(CN3CCOCC3)cc2[nH]1)NC1CC1 [AT9283] + CS(=O)(=O)CCNCc1ccc(-c2ccc3ncnc(Nc4ccc(OCc5cccc(F)c5)c(Cl)c4)c3c2)o1 [Lapatinib] (partner 2 µM)
Outline: as §1

AT9283 + Trametinib = compound: O=C(Nc1c[nH]nc1-c1nc2ccc(CN3CCOCC3)cc2[nH]1)NC1CC1 [AT9283] + CC(=O)Nc1cccc(-n2c(=O)n(C3CC3)c(=O)c3c(Nc4ccc(I)cc4F)n(C)c(=O)c(C)c32)c1 [Trametinib] (partner 0.02 µM)
Outline: as §1

AT9283 + AZD7762 = compound: O=C(Nc1c[nH]nc1-c1nc2ccc(CN3CCOCC3)cc2[nH]1)NC1CC1 [AT9283] + NC(=O)Nc1cc(-c2cccc(F)c2)sc1C(=O)N[C@H]1CCCNC1 [AZD7762] (partner 0.2 µM)
Outline: as §1

| Cell Line | relative viability (Erlotinib + Linsitinib; first compound 0.02 µM) | relative viability (Erlotinib + Linsitinib; first compound 0.2 µM) | relative viability (Erlotinib + Linsitinib; first compound 0.6325 µM) | relative viability (Erlotinib + Linsitinib; first compound 2 µM) | relative viability (AT9283 + Dasatinib; first compound 0.003 µM) | relative viability (AT9283 + Dasatinib; first compound 0.03 µM) | relative viability (AT9283 + Dasatinib; first compound 0.09487 µM) | relative viability (AT9283 + Dasatinib; first compound 0.3 µM) | relative viability (AT9283 + Lapatinib; first compound 0.003 µM) | relative viability (AT9283 + Lapatinib; first compound 0.03 µM) | relative viability (AT9283 + Lapatinib; first compound 0.09487 µM) | relative viability (AT9283 + Lapatinib; first compound 0.3 µM) | relative viability (AT9283 + Trametinib; first compound 0.003 µM) | relative viability (AT9283 + Trametinib; first compound 0.03 µM) | relative viability (AT9283 + Trametinib; first compound 0.09487 µM) | relative viability (AT9283 + Trametinib; first compound 0.3 µM) | relative viability (AT9283 + AZD7762; first compound 0.003 µM) | relative viability (AT9283 + AZD7762; first compound 0.03 µM) | relative viability (AT9283 + AZD7762; first compound 0.09487 µM) | relative viability (AT9283 + AZD7762; first compound 0.3 µM) |
| --- | --- | --- | --- | --- | --- | --- | --- | --- | --- | --- | --- | --- | --- | --- | --- | --- | --- | --- | --- | --- |
| SK-MES-1 | 1.09 | 0.767 | 0.537 | 0.434 | 0.56 | 0.25 | 0.0729 | 0.0952 | 0.427 | 0.547 | 0.349 | 0.263 | 0.643 | 0.594 | 0.541 | 0.276 |  |  |  |  |
| H3255 | 0.971 | 0.297 | 0.188 | 0.115 | 0.323 | 0.316 | 0.331 | 0.235 | 0.22 | 0.258 | 0.173 | 0.159 | 0.65 | 0.614 | 0.459 | 0.284 | 0.832 | 0.746 | 0.548 | 0.211 |
| NCI-H2126 |  | 0.597 | 0.548 | 0.419 | 0.587 | 0.602 | 0.439 | 0.271 | 0.748 | 0.737 | 0.66 | 0.296 | 0.573 | 0.566 | 0.38 | 0.293 | 0.979 | 1.05 | 0.969 | 0.339 |
| NCI-H1703 | 0.749 | 0.818 | 1.08 | 0.924 |  |  |  |  | 1.24 | 0.277 | 0.31 | 0.354 |  |  |  |  | 0.12 | 0.108 | 0.0955 | 0.106 |
| SW 1573 | 0.81 | 0.724 | 0.797 | 0.853 | 0.496 | 0.115 | 0.0919 | 0.0873 | 1.15 | 0.494 | 0.188 | 0.244 | 0.597 | 0.174 | 0.17 | 0.143 |  |  |  |  |
| NCI-H838 | 1.19 | 0.93 | 1.05 | 0.906 | 0.302 | 0.255 | 0.222 | 0.188 | 0.98 | 0.225 | 0.18 | 0.182 | 0.543 | 0.275 | 0.16 | 0.144 | 0.968 | 0.705 | 0.612 | 0.655 |
| NCI-H1792 | 0.466 | 0.405 | 0.525 | 0.432 | 0.894 | 0.886 | 0.748 | 0.538 | 0.797 | 0.713 | 0.151 | 0.108 | 0.315 | 0.376 | 0.509 | 0.258 | 0.601 | 0.647 | 0.432 | 0.262 |
| NCI-H1651 | 0.967 | 0.996 | 1.07 | 0.842 | 0.442 | 0.368 | 0.319 | 0.212 | 0.83 | 0.481 | 0.215 | 0.279 | 0.838 | 0.875 | 0.819 | 0.39 | 0.43 | 0.441 | 0.403 | 0.213 |
| HARA | 1.13 | 0.834 | 0.59 | 0.197 | 0.27 | 0.235 | 0.0621 | 0.0732 | 0.767 | 0.504 | 0.0806 | 0.0666 | 0.691 | 0.203 | 0.118 | 0.151 | 0.315 | 0.232 | 0.0942 | 0.158 |
| NCI-H1944 | 1.17 |  | 0.776 | 0.642 | 0.199 | 0.178 | 0.116 | 0.111 | 0.731 | 0.598 | 0.271 | 0.204 | 0.408 | 0.307 | 0.196 | 0.206 | 0.594 | 0.246 | 0.184 | 0.125 |
| SK-LU-1 | 1.46 | 1.11 | 1.18 | 0.75 | 0.217 | 0.124 | 0.0747 | 0.0888 | 0.933 | 0.371 | 0.274 | 0.272 | 0.508 | 0.424 | 0.288 | 0.279 |  |  |  |  |
| NCI-H650 | 0.817 |  | 1.06 | 0.843 | 0.425 | 0.433 | 0.219 | 0.175 | 0.832 | 0.842 | 0.252 | 0.199 | 0.976 | 0.906 | 0.394 | 0.179 | 0.814 | 0.923 | 0.373 | 0.227 |
| PC-14 | 0.426 | 0.289 | 0.269 | 0.219 | 0.221 | 0.146 | 0.0272 | 0.016 | 0.328 | 0.393 | 0.203 | 0.102 | 0.827 | 0.459 | 0.131 | 0.0923 | 0.341 | 0.371 | 0.206 | 0.0832 |
| NCI-H2170 |  |  |  |  | 0.446 | 0.427 | 0.16 | 0.133 | 0.242 | 0.261 | 0.2 | 0.2 | 0.958 | 0.747 | 0.268 | 0.159 | 0.794 | 0.485 | 0.162 | 0.153 |
| CAL-12T | 0.804 | 0.654 | 0.5 | 0.368 | 0.495 | 0.204 | 0.124 | 0.12 | 0.587 | 0.299 | 0.23 | 0.238 | 0.421 | 0.399 | 0.211 | 0.152 | 0.584 | 0.502 | 0.347 | 0.189 |
| IA-LM | 0.62 | 0.578 | 0.55 | 0.595 |  |  |  |  | 0.793 | 0.27 | 0.0791 | 0.0891 |  |  |  |  |  |  |  |  |
| A-427 | 1.15 | 1.1 | 1.12 | 1.12 | 0.698 | 0.402 | 0.124 | 0.131 | 0.936 | 0.897 | 0.671 | 0.219 | 0.706 | 0.501 | 0.334 | 0.396 | 0.675 | 0.306 | 0.227 | 0.269 |
